Assay [1] relates to DDAH. The conditions noted are these: enzyme isolated from rat kidney homogenates; cited from earlier work.
For assay [2], the target named is T1, human DDAH1 (Homo sapiens, UniProt O94760). In words: Secondary fluorimetric CPM assay with SMTC as substrate. The format is biochemical. Conditions: for time-dependent inhibition (mode of inhibition): 50 μM compound, 30 nM enzyme, fluorometric CPM assay; for confirmation as DDAH inhibitor in the validation assay: known DDAH inhibitors; for IC50: inhibition of human DDAH1, CPM assay, 30 nM DDAH, 100 μM SMTC.
T1 sequence (O94760 whole entry): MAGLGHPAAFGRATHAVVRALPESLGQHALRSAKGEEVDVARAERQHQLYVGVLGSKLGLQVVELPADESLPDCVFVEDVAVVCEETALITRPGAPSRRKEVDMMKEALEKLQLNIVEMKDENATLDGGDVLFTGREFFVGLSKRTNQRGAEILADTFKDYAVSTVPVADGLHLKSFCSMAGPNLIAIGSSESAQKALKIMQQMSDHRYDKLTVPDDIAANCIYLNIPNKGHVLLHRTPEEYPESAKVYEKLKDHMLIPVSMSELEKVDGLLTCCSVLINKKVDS

Assay [3] has as its system primary microvascular endothelial cells (HMVECs). In words: L-citrulline assay in cell lysates. It counts as cell-based. The conditions noted are these: 1 mM L-Arginine for 24 hours vs vehicle, p<0.05.
The target in assay [4] is T1, human DDAH1. In words: Colorimetric L-citrulline assay with ADMA as substrate. It counts as biochemical.
Assay [5] has as its target T1, human DDAH1. The conditions noted are these: cited from earlier work.
Setting [6] is: screening with recombinant human DDAH1, assay format not given.

Like-named read-outs stand apart in the source and are kept apart here. A value given as a limit tells only on which side of the number the result lay.

As to `O=C(O)c1cc[c]([Hg][Cl])cc1` [chloromercuribenzoate, 4-chloromercuribenzoic acid], the “sensitivity of the enzyme to the compound” value in assay [1] was “sensitive”. For the same molecule, in assay [2], the “time-dependent inhibition (mode of inhibition)” value is “progressive inhibition” and the “confirmation as DDAH inhibitor in the validation assay” value was “confirmed”.

As to `N=C(N)NCCC[C@H](N)C(=O)O` [L-Arginine], in assay [3], the “amount of intracellular L-citrulline” value is on record as “increased the amount of intracellular L-citrulline significantly”.

As to `CN(C)C(N)=NCCC[C@H](N)C(=O)O` [ADMA, Asymmetric Dimethylarginine], the Michaelis constant (Km) in assay [4] was 180 µM. The kcat in assay [4] (ADMA as substrate, 0.3 μM DDAH, 500 μM ADMA, 4 hours at 37°C) is recorded as ~ 0.7 min^−1.

Regarding `CN=c1nc(-c2ccccc2)n(-c2ccccc2)s1` [SCH-202676], 13.3 µM corresponded to half-maximal inhibition in assay [2] (IC50).

With `Cn1c(=O)c2[nH]cnc2n(C)c1=O.[CH2-]C(Cc1cccc2cc(C(=O)O)c(=O)oc12)OC.[Hg+2].[OH-]` (centres unmarked) [Cumertilin], the inhibition in assay [4] (at 25μM, screening with recombinant human DDAH1) came out at 100%.

With `C[CH2][Hg][S]c1ccccc1C(=O)[O-].[Na+]` [Thimerosal], the concentration for half-maximal inhibition (IC50) in assay [4] (setting [6]) came out at 460 nM.

Take `CC(=O)[O][Hg][c]1ccccc1` [phenylmercuric acetate]: in assay [2], the “time-dependent inhibition (mode of inhibition)” value is given as “progressive inhibition” and the 50% inhibitory concentration (IC50) is below 0.78 µM. Also, the half-maximal inhibitory concentration (IC50) in assay [4] (setting [6]) was below 780 nM.

As for `[Cl][Hg][Cl]` [mercury chloride], the “sensitivity of the enzyme to the compound” value in assay [1] is “sensitive”.

Consider `CSC(N)=NCCC[C@H](N)C(=O)O` [SMTC, S-methyl-L-thiocitrulline], for which the kcat in assay [5] (SMTC as substrate at 100 μM) is reported as ~ 1 min^−1. Also, the Michaelis-Menten constant (Km) in assay [5] (SMTC as substrate) was 1000 nM.

Consider `O=c1c2ccccc2[se]n1-c1ccccc1` [ebselen], for which, in assay [2], the “confirmation as DDAH inhibitor in the validation assay” value is “confirmed”. The same molecule had an IC50 in assay [4] of 3900 nM.

These data come from publication PMC3606823 (Journal of biomolecular screening, 2012).
